# Experimental data reported in US6500455B1, “Tolperison-containing, pharmaceutical preparation for oral administration” (Sanochemia Pharmazeutika, priority 1999, dated 2002).
# Experiments:
# [1] = effectiveness of the Tolperison isomers; conditions: comparison of (−) isomer, (+) isomer and racemic mixtures
# [2] = blood (of humans); active ingredient present as 50/50 racemate; cited from earlier work
SMILES,effectiveness of the isomers compared with each other [1],proportion of the isomer present in the blood [2]
"Cc1ccc(C(=O)C(C)CN2CCCCC2)cc1 (single isomer, unassigned; (+)) [(+) isomer]",almost identically effective,≤ 10%
"Cc1ccc(C(=O)C(C)CN2CCCCC2)cc1 (single isomer, unassigned; (-)) [(−) isomer, 2,4′-dimethyl-3-piperidonopropriophenone]",almost identically effective,up to 90%
